Assay results as given in article PMC5054527, “Mechanism of high affinity inhibition of the human urate transporter URAT1” (Scientific Reports, 2016).
Where a chain is given by its changes, count along the chain named. Like-named read-outs stand apart in the source and are kept apart here.

Experiments:
Assay in all cases: URAT1 uric acid transport activity assay
Type in all cases: cell-based, human/rat
r-h TM7 URAT1 chimera = target: T1, r-h TM7 URAT1 chimera (Rattus norvegicus, UniProt Q3ZAV1, F351C/M354T/Y365F)
T1 construct: expressed in transfected cells; host or cells: HEK-293T
T1 sequence (Q3ZAV1 1-553 F351C/M354T/Y365F): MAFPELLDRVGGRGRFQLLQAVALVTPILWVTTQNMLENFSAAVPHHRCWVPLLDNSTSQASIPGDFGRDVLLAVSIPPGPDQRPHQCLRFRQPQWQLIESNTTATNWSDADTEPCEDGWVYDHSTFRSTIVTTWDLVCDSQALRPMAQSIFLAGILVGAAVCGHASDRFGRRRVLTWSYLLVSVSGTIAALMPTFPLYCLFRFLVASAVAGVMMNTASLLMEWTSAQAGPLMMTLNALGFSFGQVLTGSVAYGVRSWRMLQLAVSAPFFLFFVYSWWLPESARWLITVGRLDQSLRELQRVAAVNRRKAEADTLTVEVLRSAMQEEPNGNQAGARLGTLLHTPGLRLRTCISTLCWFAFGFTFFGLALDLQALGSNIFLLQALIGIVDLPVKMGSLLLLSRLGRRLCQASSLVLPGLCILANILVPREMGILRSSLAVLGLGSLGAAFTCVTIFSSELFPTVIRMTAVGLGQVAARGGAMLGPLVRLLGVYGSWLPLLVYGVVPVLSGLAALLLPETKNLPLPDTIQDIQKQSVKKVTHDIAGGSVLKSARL
From the text: (§1) hURAT1 (GenBank BC053348.1) and rURAT1 (NCBI NM_001034943.1) genes were purchased from Origene Technologies, Inc. and subcloned into pCMV6/neo using NotI, creating pCMV6/neo-hURAT1 and pCMV6/neo-rURAT1. Mutants were produced by polymerase chain reaction (PCR) or site-directed mutagenesis using the QuikChange Lightning Multi Site-Directed Mutagenesis Kit (Agilent Technologies). […] Detailed methods are provided in Supplementary Methods, and primers are listed in Supplementary Table 1. […] Residues in rURAT1 and hOAT1 that correspond to the residues in hURAT1 were identified from aligned protein sequences (Supplementary Fig. 1)[50].
(§2) DNA (10 μg) was mixed with 30 μl of DreamFect Gold (Boca Scientific) in 2 ml OptiMem (Life Technologies). After 20 minutes, 18 ml of media containing 2 × 10^7 cells in suspension was added and mixed, and 200 μl per well were plated onto white clear-bottomed poly-D-lysine coated 96-well plates (BD Biosciences). The cells were assayed the following day.
(§3) Compounds were serially diluted into assay buffer and added to the cells for 5 minutes prior to addition of radiolabelled uric acid substrate. URAT1-expressing cells were incubated with 100 μM ^14C-uric acid for 10 minutes. […] Each treatment was measured in triplicate.
(§4) Unlabelled uric acid was prepared at a 20 mM stock just prior to use in a solution containing 20 mM dibasic potassium phosphate and 20 mM potassium hydroxide.
(§5) Nonlinear regression analyses using GraphPad Prism software were used to calculate the potency of URAT1 inhibitors (IC50 values) from log (inhibitor) versus response - variable slope (four parameters) equations. Statistical significance was assessed using Student’s unpaired t-tests.

r-h TM1-C URAT1 chimera = target: T2, r-h TM1-C URAT1 chimera (Rattus norvegicus, UniProt Q3ZAV1, L29M/N35S/P27S/T32C/V31L)
T2 sequence (Q3ZAV1 1-553 P27S/L29M/V31L/T32C/N35S): T1 sequence (Q3ZAV1 1-553 F351C/M354T/Y365F) with P27S, L29M, V31L, T32C, N35S, C351F, T354M, F365Y
From the text: as §1, §2, §3, §4, §5

r-h TM11 URAT1 chimera = target: T3, r-h TM11 URAT1 chimera (Rattus norvegicus, UniProt Q3ZAV1, M481I/V474M)
T3 sequence (Q3ZAV1 1-553 V474M/M481I): T1 sequence (Q3ZAV1 1-553 F351C/M354T/Y365F) with C351F, T354M, F365Y, V474M, M481I
From the text: as §1, §2, §3, §4, §5

CCc1oc2ccccc2c1C(=O)c1cc(Br)c(O)c(Br)c1 [benzbromarone]
IC50 (r-h TM7 URAT1 chimera): 5.7 ± 0.25 µM | IC50 (r-h TM1-C URAT1 chimera): 12 ± 0.78 µM | IC50 (r-h TM11 URAT1 chimera): 12 ± 0.48 µM

O=C(O)CSc1nnc(Br)n1-c1ccc(C2CC2)c2ccccc12 [lesinurad, 2-((5-bromo-4-(4-cyclopropylnaphthalen-1-yl)-4H-1,2,4-triazol-3-yl)thio)acetic acid]
IC50 (r-h TM7 URAT1 chimera; r-h TM7, MES pH 5.5, 100 μM 14C-uric acid, read-out: IC50 (uric acid transport)): 6.9 ± 0.99 µM | IC50 (r-h TM1-C URAT1 chimera; r-h TM1-C, MES pH 5.5, 100 μM 14C-uric acid, read-out: IC50 (uric acid transport)): 17 ± 2 µM | IC50 (r-h TM11 URAT1 chimera; r-h TM11, MES pH 5.5, 100 μM 14C-uric acid, read-out: IC50 (uric acid transport)): 62 ± 3.6 µM

O=C1C(CC[S+]([O-])c2ccccc2)C(=O)N(c2ccccc2)N1c1ccccc1 (stereo not drawn) [sulfinpyrazone]
IC50 (r-h TM7 URAT1 chimera; r-h TM7, HEPES pH 7.3, 100 μM 14C-uric acid, read-out: IC50 (uric acid transport)): 243 ± 22 µM | IC50 (r-h TM1-C URAT1 chimera; r-h TM1-C, HEPES pH 7.3, 100 μM 14C-uric acid, read-out: IC50 (uric acid transport)): 25 ± 6.7 µM | IC50 (r-h TM11 URAT1 chimera; r-h TM11, HEPES pH 7.3, 100 μM 14C-uric acid, read-out: IC50 (uric acid transport)): 342 ± 32 µM
